Assay results taken from patent US20210355105A1, “REGULATOR OF NITROGEN-CONTAINING HETEROAROMATIC DERIVATIVES, PREPARATION METHOD THEREFOR AND USE THEREOF” (Jiangsu Hansoh Pharmaceutical Group Co., Ltd., priority 2018, published 2021).

Tests used:
[1] = Pharmacokinetics assay in MiaPaca 2 tumor-bearing mice (plasma, tumor tissue, intestine); format: in vivo; settings: female, mouse, oral 6 mg/kg
Experimental: MiaPaca 2 tumor-bearing mice were used as test animals.
Twenty-four female MiaPaca 2 tumor-bearing mice were used. Three mice were used for each time point (0 hour, 1 hour, 2 hours, 4 hours, 6 hours, 8 hours, 16 hours and 24 hours). The mice were purchased from Shanghai Sippr-BK laboratory animal Co. Ltd., with Certificate No.: SCXK (Shanghai) 2018-0006.
The solution was shaked well, and subjected to ultrasound for 15 minutes to obtain a uniform suspension with a concentration of 0.6 mg/mL.
After fast, MiaPaca 2 tumor-bearing mice were administered orally (p.o.) with the test compound according to body weight at an administration dose of 6 mg/kg and an administration volume of 10 mL/kg (the animals were not administered with the test compound on 0 hour).
The mice were euthanized by CO2 before administration and after administration, and 0.5 mL of blood was taken from heart. The blood samples were stored in EDTA-2K tubes, and centrifuged for 6 minutes at 6000 rpm, at 4° C. to separate the blood plasma. The plasma samples were stored at −80° C. The tumor tissue was weighed, placed in a 2 mL centrifuge tube, and stored at −80° C. An appropriate length of duodenum, ileum and colon tissues were taken and cut open with scissors, and the contents were removed. The above tissues were washed with PBS twice, and the moisture was absorbed with absorbent paper. The tissues were weighed, placed in a 2 mL centrifuge tube, and stored at −80° C.

[2] = Pharmacokinetics assay in rats, single intravenous injection; format: in vivo; settings: male SD rats
Experimental: SD rats were used as test animals.
The solution was subjected to ultrasound to obtain a clear solution. The solution was filtered with a 0.22 μm water filter, and the filtrate was the formulation for intravenous administration (i.v.). The concentration was 0.2 mg/mL.
After an overnight fast, male SD rats (3 rats per group) were administered intravenously with the test compounds at an administration dose of 1 mg/kg and an administration volume of 5 mL/kg.
0.2 mL of blood was taken from jugular vein before administration and at 0 minute, 5 minutes, 15 minutes, 0.5 hour, 1.0 hour, 2.0 hours, 4.0 hours, 8.0 hours and 24.0 hours after administration. The blood samples were stored in EDTA-2K tubes, and centrifuged for 6 minutes at 6000 rpm, at 4° C. to separate the blood plasma. The plasma samples were stored at −80° C. The rats were fed four hours after administration.

Compound: Nc1nc(N2CCC3(CC2)Cc2ccccc2[C@H]3N)c(F)nc1Sc1ccnc(N)c1Cl [Example 179, (S)-1′-(6-amino-5-((2-amino-3-chloropyridin-4-yl)thio)-3-fluoropyrazin-2-yl)-1,3-dihydrospiro[indene-2,4′-piperidin]-1-amine]
- AUC(0-inf) ([1]; Colon): 9180 ng·h/mL
- Cmax ([1]; Colon): 1310 ng/mL
- MRT ([1]; Colon): 5.8 h
- Tmax ([1]; Colon): 4 h
- half-life ([1]; Colon): 2.8 h
- AUC(0-inf) ([1]; Duodenum): 16300 ng·h/mL
- Cmax ([1]; Duodenum): 5420 ng/mL
- MRT ([1]; Duodenum): 4.8 h
- Tmax ([1]; Duodenum): 1 h
- half-life ([1]; Duodenum): 4.8 h
- AUC(0-inf) ([1]; Ileum): 10000 ng·h/mL
- Cmax ([1]; Ileum): 1930 ng/mL
- MRT ([1]; Ileum): 6.1 h
- Tmax ([1]; Ileum): 2 h
- half-life ([1]; Ileum): 5.3 h
- AUC(0-inf) ([1]; Plasma): 2860 ng·h/mL
- Cmax ([1]; Plasma): 386 ng/mL
- MRT ([1]; Plasma): 7.5 h
- Tmax ([1]; Plasma): 1 h
- half-life ([1]; Plasma): 4.8 h
- AUC(0-inf) ([1]; Tumor): 51800 ng·h/mL
- Cmax ([1]; Tumor): 2390 ng/mL
- MRT ([1]; Tumor): 19.1 h
- Tmax ([1]; Tumor): 8 h
- half-life ([1]; Tumor): 11.5 h
- F ([2]; printed in the i.v. 1 mg/kg table): 118%
- AUC(0-inf) ([2]; rat, iv, i.v. 1 mg/kg, plasma): 613 ng·h/mL
- C0 ([2]; rat, iv, i.v. 1 mg/kg, plasma): 311 ng/mL
- MRT ([2]; rat, iv, i.v. 1 mg/kg, plasma): 4.26 h
- clearance ([2]; rat, iv, i.v. 1 mg/kg, plasma): 27.2 mL/min/kg
- half-life ([2]; rat, iv, i.v. 1 mg/kg, plasma): 3.35 h
- Vd ([2]; rat, iv, i.v. 1 mg/kg, plasma, read-out: Vss): 7 L/kg
